The text below walks through data of patent US5710166A, “N-acyl beta amino acid derivatives useful as platelet aggregation inhibitors” (The Monsanto Company, priority 1995, dated 1998).

A word on the inhibition: it is the change of the read-out against control, counted positive when it falls. One may read the IC50 as the concentration that inhibits the measured activity by half.

Each structure is given as a SMILES string.

The experiment concerns platelet aggregation (Dog PRP). The experiment is described as follows: In-Vitro Platelet Aggregation in PRP (ADP-induced, dog platelet-rich plasma). Type of experiment: cell-based. The note with it: Canis lupus familiaris, ADP 50 um final concentration; for IC50: linear regression of dose response curve, read-out: IC50 (dosage at which 50% of platelet aggregation is inhibited). The protocol:
Healthy male or female dogs were fasted for 8 hours prior to drawing blood; then 30 ml whole blood was collected using a butterfly needle and 30 cc plastic syringe with 3 ml or 0.129M buffered sodium citrate (3.8%). The syringe was rotated carefully as blood was drawn to mix the citrate. Platelet-rich plasma (PRP) was prepared by centrifugation at 975 x g for 3.17 minutes at room temperature allowing the centrifuge to coast to a stop without braking. The PRP was removed from the blood with a plastic pipette and placed in a plastic capped, 50 mL Corning conical sterile centrifuge tube which was held at room temperature. Platelet poor plasma (PPP) was prepared by centrifuging the remaining blood at 2000 x g for 15 minutes at room temperature allowing the centrifuge to coast to a stop without braking. The PRP was adjusted with PPP to a count of 2-3×10^8 platelets per mL. 400 uL of the PRP preparation and 50 uL of the compounds solution to be tested or saline were preincubated for 1 minute at 37° C. in a […].). 50 uL of adenosine 5' diphosphate (ADP) (50 um final concentration) was added to the cuvettes and the aggregation was monitored for 1 minute. All compounds are tested in duplicate. Results are calculated as follows: Percent of control=[(maximal OD minus initial OD of compound) divided by (maximal OD minus initial OD of control saline)]×100. The % inhibition=100-(percent of control).
The compounds tested and their median inhibitory concentrations (IC50) are recorded in Table I. IC50 's (dosage at which 50% of platelet aggregation is inhibited) were calculated by linear regression of the dose response curve.

Consider `N=C(N)c1ccc(CNc2cccc(C(=O)NCCC(=O)O)c2)cc1` [Example 2, β-[[3-[4-(aminoiminomethyl)benzyl]aminobenzoyl]amino]propanoic acid], for which the inhibition at 10 µM (compound at 10^-5 M, read-out: % Inh. (inhibition of platelet aggregation)) is 28%. Consider `N=C(N)c1ccc(CNc2cccc(C(=O)NC(CC(=O)O)c3cccnc3)c2)cc1` (stereo not drawn) [Example 4, β-[[3-[4-(aminoiminomethyl)benzyl]aminobenzoyl]amino]-3-pyridinepropanoic acid], for which the half-maximal inhibitory concentration (IC50) came out at 6.8 µM.

Regarding `N=C(N)c1ccc(CNCCC(=O)NC(CC(=O)O)c2cccnc2)cc1` (stereo not drawn) [Example 6, β-[[3-[4-(aminoiminomethyl)benzyl]aminopropanoyl]amino]-3-pyridinepropanoic acid], the IC50 amounted to 0.8 µM.
